Measurements as given in patent publication US10457691B2, “Macrocyclic kinase inhibitors and uses thereof” (Dana-Farber Cancer Institute, Inc., priority 2014, dated 2019).

Columns and labels:
Assay type in all cases: biochemical
Settings in all cases: read-out: Activity of the protein kinase when treated with compound I-1 (% control)
EPH-A4 = EPH-A4 (Homo sapiens, UniProt P54764); assay: Protein kinase assay ([γ-32P] ATP), EPH-A4
Procedure: (§1) In another set of experiments, the activities of the compounds described herein against various protein kinases were determined according to the methods reported in Hastie et al., Nature Protocols, 2006, 1, 968-971.
(§2) Enzyme dilution buffer. This buffer consisted of 50 mM Tris-HCl, pH 7.5, 0.1 mM EGTA, 1 mg ml^−1 bovine serum albumin and 0.1% (vol/vol) 2-mercaptoethanol.
(§3) 10× concentrated assay buffer. An assay buffer of 500 mM Tris-HCl, pH 7.5, 1 mM EGTA, and 100 mM magnesium acetate was used for assay of a wide variety of protein kinases. In some experiments, other cofactors were included (e.g., calcium ions and calmodulin were included for assay of calcium-calmodulindependent protein kinases).
(§4) 1 mM [γ-^32P] ATP. The specific activity of the [γ-^32P] ATP solution was 1×10^5 to 1×10^6 c.p.m. per nmol depending on what was needed to produce an optimal signal/noise ratio. […] To measure the concentration of ATP, a sample of such a stock solution was diluted to 20 μM, and the absorbance of the diluted sample was measured at 259 nm. The absorbance of a 20-μM stock solution of ATP at 259 nm was about 0.31. […] ATP to produce a radioactivity of 1×10^5 to 1×10^6 c.p.m. per nmol. […]
(§5) 13) Measure radioactivity in the samples by Cerenkov counting (e.g., without liquid scintillation fluid) in a liquid scintillation counter using a “^32P program”. […]

IRAK4 = IRAK4 (Homo sapiens, UniProt Q9NWZ3); assay: Protein kinase assay ([γ-32P] ATP), IRAK4
Procedure: as §1, §2, §3, §4, §5

Lck = Lck (Homo sapiens, UniProt P06239); assay: Protein kinase assay ([γ-32P] ATP), Lck
Procedure: as §1, §2, §3, §4, §5

BTK = BTK (Homo sapiens, UniProt Q06187); assay: Protein kinase assay ([γ-32P] ATP), BTK
Procedure: as §1, §2, §3, §4, §5

EPH-B2 = EPH-B2 (Homo sapiens, UniProt P29323); assay: Protein kinase assay ([γ-32P] ATP), EPH-B2
Procedure: as §1, §2, §3, §4, §5

CDK9-Cyclin T1 = CDK9-Cyclin T1 (Homo sapiens, UniProt P50750); assay: Protein kinase assay ([γ-32P] ATP), CDK9-Cyclin T1
Procedure: as §1, §2, §3, §4, §5

TAK1 = TAK1 (Homo sapiens, UniProt O43318); assay: Protein kinase assay ([γ-32P] ATP), TAK1
Procedure: as §1, §2, §3, §4, §5

FGF-R1 = FGF-R1 (Homo sapiens, UniProt P11362); assay: Protein kinase assay ([γ-32P] ATP), FGF-R1
Procedure: as §1, §2, §3, §4, §5

JAK2 = JAK2 (Homo sapiens, UniProt O60674); assay: Protein kinase assay ([γ-32P] ATP), JAK2
Procedure: as §1, §2, §3, §4, §5

OSR1 = OSR1 (Homo sapiens, UniProt O95747); assay: Protein kinase assay ([γ-32P] ATP), OSR1
Procedure: as §1, §2, §3, §4, §5

ABL = ABL (Homo sapiens, UniProt P00519); assay: Protein kinase assay ([γ-32P] ATP), ABL
Procedure: as §1, §2, §3, §4, §5

TBK1 = TBK1 (Homo sapiens, UniProt Q9UHD2); assay: Protein kinase assay ([γ-32P] ATP), TBK1
Procedure: as §1, §2, §3, §4, §5

Aurora A = Aurora A (Homo sapiens, UniProt O14965); assay: Protein kinase assay ([γ-32P] ATP), Aurora A
Procedure: as §1, §2, §3, §4, §5

IRR = IRR (Homo sapiens, UniProt P14616); assay: Protein kinase assay ([γ-32P] ATP), IRR
Procedure: as §1, §2, §3, §4, §5

MLK1 = MLK1 (Homo sapiens, UniProt P80192); assay: Protein kinase assay ([γ-32P] ATP), MLK1
Procedure: as §1, §2, §3, §4, §5

MARK2 = MARK2 (Homo sapiens, UniProt Q7KZI7); assay: Protein kinase assay ([γ-32P] ATP), MARK2
Procedure: as §1, §2, §3, §4, §5

HER4 = HER4 (Homo sapiens, UniProt Q15303); assay: Protein kinase assay ([γ-32P] ATP), HER4
Procedure: as §1, §2, §3, §4, §5

[1] = 0.1 μM of compound I-1, DMSO control = 100%
[2] = 1 μM of compound I-1, DMSO control = 100%

Chain of EPH-B2 (P29323 19-1055): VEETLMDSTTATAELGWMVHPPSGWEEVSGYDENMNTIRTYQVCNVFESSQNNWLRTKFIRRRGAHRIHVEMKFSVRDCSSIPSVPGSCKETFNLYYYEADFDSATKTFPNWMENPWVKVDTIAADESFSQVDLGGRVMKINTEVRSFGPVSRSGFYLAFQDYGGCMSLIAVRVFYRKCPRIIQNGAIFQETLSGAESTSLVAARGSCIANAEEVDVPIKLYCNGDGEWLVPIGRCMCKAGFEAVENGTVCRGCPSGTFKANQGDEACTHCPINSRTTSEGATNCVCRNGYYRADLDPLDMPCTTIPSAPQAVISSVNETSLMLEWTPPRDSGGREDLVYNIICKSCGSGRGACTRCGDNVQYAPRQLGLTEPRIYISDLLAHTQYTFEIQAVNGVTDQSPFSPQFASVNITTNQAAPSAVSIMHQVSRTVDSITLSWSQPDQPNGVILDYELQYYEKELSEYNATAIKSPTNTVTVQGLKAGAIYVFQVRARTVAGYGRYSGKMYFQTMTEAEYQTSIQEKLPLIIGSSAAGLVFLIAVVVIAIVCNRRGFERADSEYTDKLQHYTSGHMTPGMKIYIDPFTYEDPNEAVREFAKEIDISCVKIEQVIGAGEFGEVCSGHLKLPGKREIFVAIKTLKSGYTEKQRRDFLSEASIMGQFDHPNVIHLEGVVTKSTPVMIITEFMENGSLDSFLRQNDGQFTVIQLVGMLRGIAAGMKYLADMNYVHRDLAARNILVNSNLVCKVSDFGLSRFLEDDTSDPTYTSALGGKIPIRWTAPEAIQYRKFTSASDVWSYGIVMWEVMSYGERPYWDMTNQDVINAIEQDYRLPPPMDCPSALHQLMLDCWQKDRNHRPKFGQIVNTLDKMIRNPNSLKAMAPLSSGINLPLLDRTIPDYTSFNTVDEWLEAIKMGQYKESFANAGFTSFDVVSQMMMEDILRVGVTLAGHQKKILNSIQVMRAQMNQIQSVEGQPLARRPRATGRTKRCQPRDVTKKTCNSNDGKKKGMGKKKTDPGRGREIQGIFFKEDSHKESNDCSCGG
Chain of MLK1 (P80192 whole entry): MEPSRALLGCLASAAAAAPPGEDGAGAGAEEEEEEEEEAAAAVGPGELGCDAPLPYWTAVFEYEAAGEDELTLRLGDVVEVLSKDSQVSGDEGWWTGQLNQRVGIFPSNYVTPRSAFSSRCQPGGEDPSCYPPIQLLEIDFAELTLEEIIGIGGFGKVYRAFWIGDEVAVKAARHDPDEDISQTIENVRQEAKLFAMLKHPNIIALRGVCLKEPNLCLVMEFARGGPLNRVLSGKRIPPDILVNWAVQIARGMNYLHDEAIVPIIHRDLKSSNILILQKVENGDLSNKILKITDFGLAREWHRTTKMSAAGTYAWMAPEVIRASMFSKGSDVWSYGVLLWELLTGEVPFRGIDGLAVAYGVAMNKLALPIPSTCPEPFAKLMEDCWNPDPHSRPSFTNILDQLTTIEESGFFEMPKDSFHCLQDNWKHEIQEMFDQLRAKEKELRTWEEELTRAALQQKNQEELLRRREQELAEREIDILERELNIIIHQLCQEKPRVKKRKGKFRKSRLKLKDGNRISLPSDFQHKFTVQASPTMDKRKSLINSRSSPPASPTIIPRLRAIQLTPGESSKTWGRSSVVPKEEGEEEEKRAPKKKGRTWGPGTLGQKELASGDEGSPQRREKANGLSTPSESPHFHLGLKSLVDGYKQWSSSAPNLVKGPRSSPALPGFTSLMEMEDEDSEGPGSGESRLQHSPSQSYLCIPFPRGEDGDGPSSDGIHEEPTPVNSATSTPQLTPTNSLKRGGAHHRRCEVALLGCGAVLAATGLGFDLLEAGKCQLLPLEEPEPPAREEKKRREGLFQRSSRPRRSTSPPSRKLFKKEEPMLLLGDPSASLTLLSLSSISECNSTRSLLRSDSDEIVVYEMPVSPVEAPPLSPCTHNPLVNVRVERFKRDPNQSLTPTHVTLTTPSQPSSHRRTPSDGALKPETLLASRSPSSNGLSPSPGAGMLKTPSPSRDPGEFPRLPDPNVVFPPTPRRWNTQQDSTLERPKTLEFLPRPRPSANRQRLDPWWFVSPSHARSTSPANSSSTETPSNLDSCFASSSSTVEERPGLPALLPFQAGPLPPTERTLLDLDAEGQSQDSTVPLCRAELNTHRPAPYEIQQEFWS
Chain of Lck (P06239 whole entry): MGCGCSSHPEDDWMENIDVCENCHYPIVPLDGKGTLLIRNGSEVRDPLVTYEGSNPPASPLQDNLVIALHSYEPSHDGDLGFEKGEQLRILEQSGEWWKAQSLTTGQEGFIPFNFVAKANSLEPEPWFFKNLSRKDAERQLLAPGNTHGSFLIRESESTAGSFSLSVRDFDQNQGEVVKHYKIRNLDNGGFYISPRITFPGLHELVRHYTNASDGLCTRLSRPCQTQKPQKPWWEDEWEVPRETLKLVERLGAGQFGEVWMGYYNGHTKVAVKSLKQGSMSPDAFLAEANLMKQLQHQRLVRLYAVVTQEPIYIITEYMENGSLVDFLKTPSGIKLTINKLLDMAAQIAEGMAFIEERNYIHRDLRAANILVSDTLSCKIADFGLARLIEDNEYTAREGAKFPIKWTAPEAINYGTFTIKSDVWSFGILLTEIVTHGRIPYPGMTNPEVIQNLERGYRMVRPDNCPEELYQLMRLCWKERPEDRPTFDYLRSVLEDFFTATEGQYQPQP
Chain of OSR1 (O95747 whole entry): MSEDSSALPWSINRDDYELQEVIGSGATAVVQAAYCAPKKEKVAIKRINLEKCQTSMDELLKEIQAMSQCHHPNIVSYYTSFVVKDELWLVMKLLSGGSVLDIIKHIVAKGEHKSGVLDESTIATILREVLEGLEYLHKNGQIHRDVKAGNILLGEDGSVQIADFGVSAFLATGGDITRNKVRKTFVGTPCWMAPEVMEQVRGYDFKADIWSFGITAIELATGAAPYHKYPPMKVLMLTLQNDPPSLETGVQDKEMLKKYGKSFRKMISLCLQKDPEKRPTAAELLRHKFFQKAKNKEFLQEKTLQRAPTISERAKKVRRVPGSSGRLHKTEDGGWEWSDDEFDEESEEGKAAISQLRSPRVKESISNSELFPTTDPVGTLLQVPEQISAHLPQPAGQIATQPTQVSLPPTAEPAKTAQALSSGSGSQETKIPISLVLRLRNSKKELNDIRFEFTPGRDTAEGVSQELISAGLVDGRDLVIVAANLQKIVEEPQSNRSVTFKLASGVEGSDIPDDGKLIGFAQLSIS
Chain of ABL (P00519 whole entry): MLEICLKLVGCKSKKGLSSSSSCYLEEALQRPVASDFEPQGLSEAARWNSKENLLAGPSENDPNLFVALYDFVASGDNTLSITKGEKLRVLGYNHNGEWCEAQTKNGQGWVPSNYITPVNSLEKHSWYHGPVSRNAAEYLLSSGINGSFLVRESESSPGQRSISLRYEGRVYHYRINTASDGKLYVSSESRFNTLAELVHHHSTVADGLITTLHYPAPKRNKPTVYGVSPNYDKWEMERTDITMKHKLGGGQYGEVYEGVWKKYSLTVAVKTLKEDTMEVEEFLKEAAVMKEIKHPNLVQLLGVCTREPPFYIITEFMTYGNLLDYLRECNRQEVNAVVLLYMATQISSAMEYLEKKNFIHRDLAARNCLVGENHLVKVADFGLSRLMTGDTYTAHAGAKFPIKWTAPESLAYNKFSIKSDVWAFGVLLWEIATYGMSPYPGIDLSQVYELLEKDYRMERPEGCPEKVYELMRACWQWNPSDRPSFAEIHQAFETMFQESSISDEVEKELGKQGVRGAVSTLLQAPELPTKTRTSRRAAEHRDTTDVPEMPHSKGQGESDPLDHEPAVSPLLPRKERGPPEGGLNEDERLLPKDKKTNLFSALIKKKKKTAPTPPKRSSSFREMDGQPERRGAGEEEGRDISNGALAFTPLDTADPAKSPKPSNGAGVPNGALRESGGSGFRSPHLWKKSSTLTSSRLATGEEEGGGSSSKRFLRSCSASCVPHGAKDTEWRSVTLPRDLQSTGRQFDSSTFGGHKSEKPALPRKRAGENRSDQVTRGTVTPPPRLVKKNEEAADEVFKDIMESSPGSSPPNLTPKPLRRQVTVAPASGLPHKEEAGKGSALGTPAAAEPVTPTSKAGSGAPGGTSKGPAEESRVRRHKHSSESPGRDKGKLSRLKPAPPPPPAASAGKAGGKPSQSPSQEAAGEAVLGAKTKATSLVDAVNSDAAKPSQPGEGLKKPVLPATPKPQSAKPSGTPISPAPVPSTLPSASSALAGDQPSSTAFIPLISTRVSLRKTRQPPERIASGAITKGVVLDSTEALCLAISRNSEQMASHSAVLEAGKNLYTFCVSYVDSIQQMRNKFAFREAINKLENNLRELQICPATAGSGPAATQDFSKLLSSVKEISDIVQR
Chain of MARK2 (Q7KZI7 whole entry): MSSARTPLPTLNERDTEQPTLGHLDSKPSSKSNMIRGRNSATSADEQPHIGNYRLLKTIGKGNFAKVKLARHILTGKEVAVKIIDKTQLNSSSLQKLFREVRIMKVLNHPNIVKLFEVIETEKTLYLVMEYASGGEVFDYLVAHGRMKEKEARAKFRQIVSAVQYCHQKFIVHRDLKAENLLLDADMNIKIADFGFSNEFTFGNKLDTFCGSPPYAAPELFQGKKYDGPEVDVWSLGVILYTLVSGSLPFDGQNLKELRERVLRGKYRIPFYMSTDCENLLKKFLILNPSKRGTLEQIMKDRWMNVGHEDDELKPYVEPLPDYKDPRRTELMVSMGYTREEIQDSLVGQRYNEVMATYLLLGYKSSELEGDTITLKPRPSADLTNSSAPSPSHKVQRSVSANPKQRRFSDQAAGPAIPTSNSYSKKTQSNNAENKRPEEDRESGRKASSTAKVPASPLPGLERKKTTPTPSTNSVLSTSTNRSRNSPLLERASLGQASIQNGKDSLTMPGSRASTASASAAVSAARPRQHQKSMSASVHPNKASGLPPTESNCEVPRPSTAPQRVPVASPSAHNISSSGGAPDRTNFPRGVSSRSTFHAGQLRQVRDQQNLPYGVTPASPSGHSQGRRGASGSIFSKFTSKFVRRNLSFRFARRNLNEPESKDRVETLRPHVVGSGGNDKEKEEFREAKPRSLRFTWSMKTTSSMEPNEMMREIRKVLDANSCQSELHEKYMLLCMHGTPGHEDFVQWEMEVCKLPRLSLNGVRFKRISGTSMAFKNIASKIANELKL

SMILES: Cc1cccc(C)c1NC(=O)N1C/C=C\COc2cccc(c2)Nc2cc1ncn2 [Compound I-1]
- remaining activity at 0.1 µM (EPH-A4; [1]): 8%
- remaining activity at 1 µM (EPH-A4; [2]): 3%
- remaining activity at 0.1 µM (IRAK4; [1]): 92%
- remaining activity at 1 µM (IRAK4; [2]): 86%
- remaining activity at 0.1 µM (Lck; [1]): 4%
- remaining activity at 1 µM (Lck; [2]): 3%
- remaining activity at 0.1 µM (BTK; [1]): 46%
- remaining activity at 1 µM (BTK; [2]): 48%
- remaining activity at 0.1 µM (EPH-B2; [1]): 54%
- remaining activity at 1 µM (EPH-B2; [2]): 1%
- remaining activity at 0.1 µM (CDK9-Cyclin T1; [1]): 116%
- remaining activity at 1 µM (CDK9-Cyclin T1; [2]): 92%
- remaining activity at 0.1 µM (TAK1; [1]): 105%
- remaining activity at 1 µM (TAK1; [2]): 81%
- remaining activity at 0.1 µM (FGF-R1; [1]): 41%
- remaining activity at 1 µM (FGF-R1; [2]): 12%
- remaining activity at 0.1 µM (JAK2; [1]): 100%
- remaining activity at 1 µM (JAK2; [2]): 72%
- remaining activity at 0.1 µM (OSR1; [1]): 97%
- remaining activity at 1 µM (OSR1; [2]): 79%
- remaining activity at 0.1 µM (ABL; [1]): 7%
- remaining activity at 1 µM (ABL; [2]): 2%
- remaining activity at 0.1 µM (TBK1; [1]): 109%
- remaining activity at 1 µM (TBK1; [2]): 83%
- remaining activity at 0.1 µM (Aurora A; [1]): 102%
- remaining activity at 1 µM (Aurora A; [2]): 103%
- remaining activity at 0.1 µM (IRR; [1]): 98%
- remaining activity at 1 µM (IRR; [2]): 83%
- remaining activity at 0.1 µM (MLK1; [1]): 60%
- remaining activity at 1 µM (MLK1; [2]): 17%
- remaining activity at 0.1 µM (MARK2; [1]): 102%
- remaining activity at 1 µM (MARK2; [2]): 71%
- remaining activity at 0.1 µM (HER4; [1]): 100%
- remaining activity at 1 µM (HER4; [2]): 71%
